Results from US12364682B2, “Use of tegaserod in preparation of anti-tumor drug” (Qingdao Haiji Biomedicine Co., Ltd., priority 2019, dated 2025).
Where a name gives a salt, the structure may show the parent alone.

Tests used:
STAT3 = experiment: STAT3-dependent luciferase reporter gene test; assay type: cell-based; conditions: Homo sapiens; SKA cells (A549 with STAT3-luciferase reporter gene), 24 h; read-out: IC50 of inhibitory effect on STAT3 (luciferase reporter)
Protocol: HeLa and SKA cells (A549 cells constructed with the STAT3-luciferase reporter gene) were cultivated in a DMEM medium, and DU145, A549, DLD1, H460, and MC38 were cultivated in an RPMI 1640 medium. For routine cultivation, 10% fetal bovine serum (FBS), 100 IU/ml penicillin, and […] streptomycin were added to a medium. All cells were cultivated at 37° C. and 5% CO2.
SKA cells were inoculated into a white 96-well plate at a density of 1×10^4/well, and cultivated overnight at 37° C. and 5% CO2. A drug to be tested was added at a concentration to be tested to act on the cells for 24 h. The luciferase activity was determined on a SpectraMax®L microplate reader using a luciferase kit (purchased from Promega®).

JAK2 Tyr1007/1008 = molecular target: T1, JAK2 Tyr1007/1008 (Homo sapiens, UniProt O60674); experiment: Western blotting of JAK2 phosphorylation in DU145 cells; assay type: cell-based; conditions: 7.5 μM, 2 h
T1 construct: endogenous in cells; host or cells: DU145
Protocol: (§1) The cells were harvested and lysed with an RIPA buffer, a resulting lysate was subjected to sodium dodecyl sulfate-polyacrylamide gel electrophoresis (SDS-PAGE), and a resulting protein was transferred to a nitrocellulose (NC) membrane (purchased from GE Healthcare®). A primary antibody was added to bind the protein to be tested on the membrane, then a horseradish peroxidase (HRP)-conjugated secondary antibody (purchased from Absin) was added for incubation, and finally a formed immunocomplex was detected with an Immobilon™ Western chemiluminescent HRP substrate (Millipore®) and photographed with a Tanon® 5200 imaging system.
(§2) STAT3 is usually JAK-kinase-phosphorylated and activated by the autophosphorylated JAK kinase upstream thereof.

[1] = system: cell proliferation marker Ki67; experiment: Immunohistochemistry of Ki67 in DU145 transplanted tumors; assay type: in vivo, nude mice; conditions: oral 1.25 mg/kg once every two days
Protocol: (§3) Paraffin sections were deparaffinized with xylene, washed with ethanol of various grades, subjected to antigen retrieval, blocked with a blocking solution in a 37° C. incubator, then treated with a primary antibody and a secondary antibody, stained with a DAB staining solution, treated with hematoxylin, a differentiation solution, an ammonia solution, ethanol of various grades, and xylene, and sealed with a neutral resin.

[2] = system: immune cells in DU145 transplanted tumors; experiment: FCM analysis of immune cells in DU145 transplanted tumors; assay type: in vivo; conditions: DU145 transplanted tumors in nude mice
Protocol: (§4) At the end of the experiment, the mice were sacrificed by C02, a proper amount of tumor tissue was collected and placed in a dissociation tube with a mouse tumor dissociation reagent (MC38 transplanted tumor) or human tumor dissociation reagent (DU145 transplanted tumor), and a tissue dissociator (Miltenyi) was used for dissociation. Separated single cells were subjected to RBC lysis and dead cell staining, obtained cells were incubated with a blocking solution at 4° C., a corresponding antibody was added, and analysis was conducted on a FACSAriaIII cell sorter.
Furthermore, the composition and proportion of immune cells in DU145 transplanted tumors in nude mice were tested through FCM.

TYK2 Tyr1054/1055 = molecular target: T2, TYK2 Tyr1054/1055 (Homo sapiens, UniProt P29597); experiment: Western blotting of TYK2 phosphorylation in DU145 cells; assay type: cell-based; conditions: high concentration 15 μM, 2 h
T2 construct: endogenous in cells; host or cells: DU145
Protocol: as §1, §2

STAT3 Tyr705 [3] = experiment: Western blotting of constitutive STAT3 activation in DU145 cells; assay type: cell-based, human; conditions: constitutively activated STAT3, 2 h
Protocol: as §1
(§5) Different concentrations of Tegaserod were added to normally-cultured cells to act on the cells for 2 h, a cell protein lysate was collected for western blotting assay, and an activation status of STAT3 was observed through a phosphorylation status at an STAT3 Tyr705 site.

[4] = Body weight and toxicity observation in tumor-bearing mice; assay type: in vivo
Protocol: (§6) Nude mice were subcutaneously injected with an A549 cell suspension (female mice) or a DU145 matrigel cell suspension (male mice). After palpable solid tumors were formed, constructed model mice were randomly divided into groups, each with 7 to 10 mice. Administration treatment was conducted according to the experimental grouping. Throughout the experiment, a body weight was measured regularly. A tumor volume was calculated as follows: tumor volume=0.5×length×width×width.

STAT3 Tyr705 [5] = experiment: Western blotting of constitutive STAT3 activation in A549 cells; assay type: cell-based; conditions: constitutively activated STAT3, 2 h
Protocol: as §1, §5

[6] = system: NSCLC A549 transplanted tumors; experiment: A549 transplanted tumor nude mouse model; assay type: in vivo, nude mice
Protocol: (§7) Female NRMI nu/nu athymic nude mice (SPF grade, 6 weeks old, with a weight of 17 g to 20 g) were purchased from GemPharmatech®, and raised in a constant-temperature and constant-humidity environment according to standard requirements, where a 12 h light-dark cycle was adopted. The animal experiment was approved by the Laboratory Animal Committee of Ocean University of China and complied with the “Guide for Care and Use of Laboratory Animals” published by the National Institutes of Health (NIH Publication No. 85-23, revised in 1996).
as §6

STAT3 (Y705) = experiment: Western blotting of IL-6-induced STAT3 activation in HeLa cells; assay type: cell-based; conditions: 2 h drug, then 5 ng/ml IL-6 for 10 min
Protocol: as §1
IL-6 was the main cytokine to activate STAT3 signaling. Hela cells were first treated with different concentrations of Tegaserod for 2 h, then stimulated with 5 ng/ml IL-6 for 10 min before harvested. Total protein was extracted, and the phosphorylation of STAT3 (Y705) was detected through western blotting.

[7] = system: prostate cancer DU145 cells; experiment: Cell viability assay, DU145; assay type: cell-based; conditions: Homo sapiens, DU-145, 72 h, read-out: growth inhibition IC50
Protocol: (§8) Cells were inoculated into a 96-well plate at a density of 3,000 cells/well. After the cells were cultivated for 18 h, different concentrations of a drug to be tested were added to act on the cells. 72 h after the drug to be tested was added, 10 μl of resazurin (1 mg/ml) was added to each well, the plate was further incubated for 3 h, and then a fluorescence value at 595 nm (excitation wavelength at 544 nm) was determined on a SpectraMax®i3 multifunctional microplate reader (purchased from Molecular Device®)
(§9) After cells were treated with Tegaserod for 72 h, the cell viability was determined to reflect the inhibitory effect of the drug on cell growth.

[8] = system: mouse stromal cells of DU145 transplanted tumors; experiment: Transcriptome sequencing of DU145 transplanted tumors; assay type: in vivo, nude mice; conditions: mouse-derived cells in DU145 transplanted tumors, mRNA sequencing
Protocol: An appropriate amount of tumor tissue was collected and quick-frozen with liquid nitrogen, and eukaryotic mRNA sequencing was conducted by Majorbio. Based on the Illumina® Novaseq 6000™ sequencing platform, all mRNAs transcribed from specific eukaryotic tissues or cells in a specified period were sequenced. In the sequencing experiment, the Illumina Truseq™ RNA sample prep kit method was used to build a library. Raw data were used for quality control, sequence alignment, transcript assembly, function annotation, and expression analysis.
In order to further explore the immunomodulatory effect of Tegaserod in an anti-tumor process, the transcriptome sequencing technology was used to conduct mRNA sequencing for DU145 transplanted tumors in nude mice, and sequencing results were aligned to the mouse reference genome to obtain the overall mRNA expression of mouse-derived cells in DU145 transplanted tumors in nude mice.

JAK1 Tyr1022/1023 = molecular target: T3, JAK1 Tyr1022/1023 (Homo sapiens, UniProt P23458); experiment: Western blotting of JAK1 phosphorylation in DU145 cells; assay type: cell-based
T3 construct: endogenous in cells; host or cells: DU145
Protocol: as §1, §2

phosphorylated STAT3 = experiment: Immunohistochemistry of phosphorylated STAT3 in DU145 transplanted tumors; assay type: in vivo, nude mice; conditions: oral administration
Protocol: as §3
In addition, the human prostate cancer cell line DU145 with constitutive STAT3 activation was selected, and the effect of Tegaserod on the growth of transplanted tumors of the human prostate cancer cell line in nude mice was also tested.

[9] = system: CRC MC38 transplanted tumors; experiment: CRC MC38 syngeneic tumor model; assay type: in vivo; conditions: immune-sound mice
Excerpt: (§10) Some parts in nude mice had acquired immune cell deficiency and an imperfect immune system, and thus the anti-tumor effect and immunomodulatory effect of Tegaserod were further tested in immune-sound mice.

[10] = system: immune cells in MC38 transplanted tumors; experiment: FCM analysis of immune cells in MC38 tumors; assay type: in vivo, mice
Protocol: as §4, §10

[11] = system: immune cells in peripheral blood; experiment: Blood cell analysis of peripheral blood; assay type: in vivo; conditions: tumor-bearing mice, after administration
Protocol: After the tumor-bearing mice were sacrificed by CO2, blood was collected from the heart and placed into an EDTA anticoagulation tube, and the blood cell component test was conducted using an IDEXX ProCyte Dx automatic blood cell analyzer.
In order to verify this hypothesis, the composition change of immune cells in peripheral blood after the administration of Tegaserod was first detected.

DLD1 colon cancer cells = experiment: Cell viability assay, DLD1; assay type: cell-based; conditions: Homo sapiens, DLD-1, 72 h, read-out: growth inhibition IC50
Protocol: as §8, §9

lung cancer H460 cells = experiment: Cell viability assay, H460; assay type: cell-based; conditions: Homo sapiens, NCI-H460, 72 h, read-out: growth inhibition IC50
Protocol: as §8, §9

lung cancer A549 cells = experiment: Cell viability assay, A549; assay type: cell-based; conditions: Homo sapiens, 72 h, read-out: growth inhibition IC50
Protocol: as §8, §9

[12] = system: prostate cancer DU145 transplanted tumors; experiment: DU145 transplanted tumor nude mouse model; assay type: in vivo, nude mice
Protocol: as §7, §6

T3 sequence (P23458 whole entry): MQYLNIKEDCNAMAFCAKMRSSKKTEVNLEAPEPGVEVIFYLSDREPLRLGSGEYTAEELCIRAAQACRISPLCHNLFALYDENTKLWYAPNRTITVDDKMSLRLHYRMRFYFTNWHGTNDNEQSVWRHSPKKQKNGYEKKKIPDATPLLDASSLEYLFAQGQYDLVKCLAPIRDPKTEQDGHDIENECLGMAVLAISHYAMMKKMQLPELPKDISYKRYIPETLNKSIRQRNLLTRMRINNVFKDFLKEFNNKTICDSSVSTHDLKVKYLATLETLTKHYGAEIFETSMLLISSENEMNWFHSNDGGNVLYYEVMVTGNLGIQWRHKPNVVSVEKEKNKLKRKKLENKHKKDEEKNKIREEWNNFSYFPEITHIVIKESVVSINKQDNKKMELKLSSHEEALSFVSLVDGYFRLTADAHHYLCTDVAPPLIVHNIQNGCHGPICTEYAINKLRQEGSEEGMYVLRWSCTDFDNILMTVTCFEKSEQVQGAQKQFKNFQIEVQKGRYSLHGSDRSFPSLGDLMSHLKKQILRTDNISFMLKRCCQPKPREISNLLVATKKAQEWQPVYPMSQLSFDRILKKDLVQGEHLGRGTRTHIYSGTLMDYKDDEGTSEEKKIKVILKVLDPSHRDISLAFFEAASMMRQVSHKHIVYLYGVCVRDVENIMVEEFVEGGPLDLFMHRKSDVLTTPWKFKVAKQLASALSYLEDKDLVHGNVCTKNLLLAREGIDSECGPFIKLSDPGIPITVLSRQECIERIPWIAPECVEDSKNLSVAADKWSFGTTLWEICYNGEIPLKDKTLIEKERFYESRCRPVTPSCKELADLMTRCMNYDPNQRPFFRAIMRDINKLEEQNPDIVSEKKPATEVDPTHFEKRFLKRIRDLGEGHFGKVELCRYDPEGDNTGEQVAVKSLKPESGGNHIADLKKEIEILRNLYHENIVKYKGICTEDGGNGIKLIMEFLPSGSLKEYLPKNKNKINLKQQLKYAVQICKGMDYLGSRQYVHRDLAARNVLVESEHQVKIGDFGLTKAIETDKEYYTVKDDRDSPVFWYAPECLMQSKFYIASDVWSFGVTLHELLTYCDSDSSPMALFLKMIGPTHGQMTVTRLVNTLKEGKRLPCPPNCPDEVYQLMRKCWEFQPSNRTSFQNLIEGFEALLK
T2 sequence (P29597 whole entry): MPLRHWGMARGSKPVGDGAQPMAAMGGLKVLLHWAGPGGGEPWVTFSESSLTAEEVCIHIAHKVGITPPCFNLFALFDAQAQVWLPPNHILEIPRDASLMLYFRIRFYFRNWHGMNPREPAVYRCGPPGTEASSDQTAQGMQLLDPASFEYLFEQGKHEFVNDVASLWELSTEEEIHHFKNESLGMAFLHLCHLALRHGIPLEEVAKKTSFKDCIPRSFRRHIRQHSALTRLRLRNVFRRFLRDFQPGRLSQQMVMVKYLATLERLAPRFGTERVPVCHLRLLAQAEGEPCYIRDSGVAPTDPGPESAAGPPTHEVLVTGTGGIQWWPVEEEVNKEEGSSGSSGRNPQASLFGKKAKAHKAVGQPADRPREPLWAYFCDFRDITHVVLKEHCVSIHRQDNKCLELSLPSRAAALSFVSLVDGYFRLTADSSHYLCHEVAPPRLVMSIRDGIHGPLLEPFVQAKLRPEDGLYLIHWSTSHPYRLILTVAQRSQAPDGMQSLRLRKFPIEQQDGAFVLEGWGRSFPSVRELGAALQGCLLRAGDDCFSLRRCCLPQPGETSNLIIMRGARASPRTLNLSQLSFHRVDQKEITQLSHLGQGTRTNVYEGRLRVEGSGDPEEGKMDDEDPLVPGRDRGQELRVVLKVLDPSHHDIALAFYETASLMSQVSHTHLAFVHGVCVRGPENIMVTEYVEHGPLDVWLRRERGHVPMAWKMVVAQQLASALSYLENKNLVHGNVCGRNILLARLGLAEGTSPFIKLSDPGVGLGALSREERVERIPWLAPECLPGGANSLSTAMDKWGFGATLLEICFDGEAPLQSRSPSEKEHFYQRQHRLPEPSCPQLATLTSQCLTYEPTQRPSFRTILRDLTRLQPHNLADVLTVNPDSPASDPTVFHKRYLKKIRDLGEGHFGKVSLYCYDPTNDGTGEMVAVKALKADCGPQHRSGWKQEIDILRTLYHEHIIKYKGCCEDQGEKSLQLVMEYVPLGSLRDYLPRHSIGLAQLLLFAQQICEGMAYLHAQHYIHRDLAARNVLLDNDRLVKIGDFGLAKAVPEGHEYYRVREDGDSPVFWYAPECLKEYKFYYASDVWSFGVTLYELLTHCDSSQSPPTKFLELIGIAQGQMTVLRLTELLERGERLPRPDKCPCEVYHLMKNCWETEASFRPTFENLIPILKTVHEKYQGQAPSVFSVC
T1 sequence (O60674 whole entry): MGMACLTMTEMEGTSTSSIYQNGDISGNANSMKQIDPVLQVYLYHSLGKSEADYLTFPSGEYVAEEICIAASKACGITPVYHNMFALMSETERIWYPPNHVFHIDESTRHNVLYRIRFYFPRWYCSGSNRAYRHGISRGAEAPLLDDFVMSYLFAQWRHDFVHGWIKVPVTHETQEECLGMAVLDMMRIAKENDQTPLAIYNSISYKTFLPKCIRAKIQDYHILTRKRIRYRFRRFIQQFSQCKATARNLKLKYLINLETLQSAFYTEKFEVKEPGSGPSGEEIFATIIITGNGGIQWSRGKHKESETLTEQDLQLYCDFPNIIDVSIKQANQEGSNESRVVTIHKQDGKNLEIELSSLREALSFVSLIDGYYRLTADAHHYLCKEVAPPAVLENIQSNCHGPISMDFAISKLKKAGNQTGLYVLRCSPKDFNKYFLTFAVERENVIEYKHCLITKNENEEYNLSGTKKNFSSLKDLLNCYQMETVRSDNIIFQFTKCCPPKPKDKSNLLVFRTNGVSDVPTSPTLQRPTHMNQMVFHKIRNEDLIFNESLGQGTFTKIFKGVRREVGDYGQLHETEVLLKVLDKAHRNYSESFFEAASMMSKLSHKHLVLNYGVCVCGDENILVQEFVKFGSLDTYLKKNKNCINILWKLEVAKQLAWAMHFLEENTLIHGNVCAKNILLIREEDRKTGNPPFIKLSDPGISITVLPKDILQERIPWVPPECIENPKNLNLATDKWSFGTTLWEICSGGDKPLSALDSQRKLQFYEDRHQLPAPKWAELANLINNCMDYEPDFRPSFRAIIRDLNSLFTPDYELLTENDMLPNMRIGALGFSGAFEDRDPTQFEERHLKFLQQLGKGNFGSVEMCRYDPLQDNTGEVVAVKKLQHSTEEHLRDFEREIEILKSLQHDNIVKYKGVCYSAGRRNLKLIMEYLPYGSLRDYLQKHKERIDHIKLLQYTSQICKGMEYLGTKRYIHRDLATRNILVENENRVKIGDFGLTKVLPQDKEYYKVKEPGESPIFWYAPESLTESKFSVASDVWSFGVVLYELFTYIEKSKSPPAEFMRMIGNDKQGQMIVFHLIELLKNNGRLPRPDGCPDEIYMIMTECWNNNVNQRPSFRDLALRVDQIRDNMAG

Work on [H]/N=C(/NCCCCC)N/N=C/c1c[nH]c2ccc(OC)cc12 [Tegaserod maleate] yielded an IC50 (STAT3) of 5.06 µM.
For CCCCCNC(=N)N/N=C/c1c[nH]c2ccc(OC)cc12 [Tegaserod, 2-[(5-methoxy-1H-indol-3-yl)methylene]-N-pentylcarbazide], the “inhibition of phosphorylation at JAK2 Tyr1007/1008” value (JAK2 Tyr1007/1008) was “could inhibit the phosphorylation”, the “tumor proliferation ability (Ki67 immunohistochemistry)” value [1] was “decreased proliferation ability” and the “proportion of immune cells (CD45+; CD11b+Ly6G+, CD11b+Ly6C+, CD335+) in tumors” value [2] was “could increase the proportion of immune cells (CD45+) in tumors”. The “inhibition of phosphorylation at TYK2 Tyr1054/1055” value (TYK2 Tyr1054/1055) was “could also inhibit the phosphorylation”, the “inhibition of STAT3 activation (Tyr705 phosphorylation)” value (STAT3 Tyr705 [3]) was “could inhibit the activation of STAT3 in a dosage-dependent manner” and the “organ damage after anatomy” value ([4]; A549 nude mouse model, i.p. administration, experimental endpoint) was “no obvious organ damage was observed”. The body weight ([4]; A549 nude mouse model, i.p. administration, throughout the experiment) was “did not change significantly”, the body weight ([4]; A549 nude mouse model, oral administration) was “did not lose weight” and the “drug toxicity (body weight)” value ([4]; DU145 nude mouse model, low-dosage, low-frequency oral administration) was “no obvious drug toxicity”. The drug toxicity ([4]; DU145 nude mouse model, oral administration) was “without obvious drug toxicity”, the drug toxicity ([4]; MC38 model, immune-sound mice) was “without obvious drug toxicity” and the “inhibition of STAT3 activation (Tyr705 phosphorylation)” value (STAT3 Tyr705 [5]) was “could inhibit the activation of STAT3 in a dosage-dependent manner”. The “anti-tumor effect relative to gefitinib” value ([6]; 5 mg/kg i.p. versus 100 mg/kg gefitinib p.o., A549 nude mice) was “comparable to that of 100 mg/kg gefitinib (p.o.)”, the “growth of A549 transplanted tumors” value ([6]; 5 mg/kg i.p., nude mice, versus control group) was “could effectively inhibit the growth of A549 tumor cells” and the “dependence of tumor inhibition rate on dosage” value ([6]; A549 transplanted tumor nude mouse model) was “no dependence on a Tegaserod dosage”. The “growth of A549 transplanted tumors (tumor weight and tumor volume)” value ([6]; oral administration, nude mice) was “could inhibit the growth of A549 transplanted tumors in nude mice”, the “inhibition of IL-6-induced STAT3 activation (Y705 phosphorylation)” value (STAT3 (Y705)) was “inhibited the activation of STAT3 induced by IL-6 in a dosage-dependent manner” and the IC50 [7] was 2.5 µM. The “genes of cytokine-cytokine receptor interaction and antigen processing and presentation (KEGG analysis)” value [8] was “significantly up-regulated”, the “inhibition of phosphorylation at JAK1 Tyr1022/1023” value (JAK1 Tyr1022/1023; 7.5 μM, 2 h) was “could inhibit the phosphorylation” and the “selectivity within the JAK kinase family” value (JAK1 Tyr1022/1023; JAK1 and JAK2 versus TYK2) was “higher affinity to JAK1 and JAK2 than to TYK2”. The “phosphorylation level of STAT3 in tumors (immunohistochemistry)” value (phosphorylated STAT3) was “could effectively inhibit the phosphorylation level of STAT3”, the “growth of CRC MC38 transplanted tumors” value [9] was “could effectively inhibit the growth of CRC MC38 transplanted tumors” and the “infiltration of immune cells (CD45+) inside tumors” value [10] was “promoted the infiltration of immune cells (CD45+) inside tumors”. The “total WBC count, neutrophils, lymphocytes, and platelets in the peripheral blood” value [11] was “could stimulate the increase”, the IC50 (DLD1 colon cancer cells) was 8.7 µM and the IC50 (lung cancer H460 cells) was 3.1 µM. For the same molecule, the IC50 (lung cancer A549 cells) was 5.7 µM, the “tumor inhibition ability at reduced administration frequency” value ([12]; DU145 nude mice, oral, once every two days) was “exhibited a stronger tumor inhibition ability” and the “dependence of tumor inhibition rate on dosage” value ([12]; DU145 transplanted tumor nude mouse model) was “no dependence on a Tegaserod dosage”. The “growth of DU145 transplanted tumors” value ([12]; oral administration, nude mice) was “could effectively inhibit the growth of DU145 transplanted tumors in nude mice”.
For COc1cc2ncnc(Nc3ccc(F)c(Cl)c3)c2cc1OCCCN1CCOCC1 [gefitinib], the “proportion of immune cells (CD45+; CD11b+Ly6G+, CD11b+Ly6C+, CD335+) in tumors” value [2] was “also exhibited a similar immunomodulatory effect” and the “total WBC count, neutrophils, lymphocytes, and platelets in the peripheral blood” value [11] was “stimulate the increase”.
